According to US7977481B2, “Pyrimidinyl-thiophene kinase modulators” (SGX Pharmaceuticals, Inc., priority 2005, dated 2011):

biological target: T1, JAK2 KD kinase (Homo sapiens, UniProt O60674); test: JAK2 Luminescence-Based ATP Depletion Enzyme Assay (JAK2-WT); assay type: biochemical; conditions: 10 μM ATP
T1 construct: JAK2 KD (kinase domain); inferred from Ni-NTA capture and imidazole elution; made in house; host or cells: Sf9 insect cells
Procedure: JAK2 Luminescence-Based ATP Depletion Enzyme Assay
Materials: JAK3tide peptide substrate=GGEEEEYFELVKKKK (Biopeptide, San Diego, Calif.), ATP (Sigma Cat#A-3377, FW=551), HEPES buffer, pH 7.6, 10% Brij 35 (Calbiochem Cat#203728), MgCl2, Staurosporine (Streptomyces sp. Sigma Cat#85660-1MG), white Corning (Costar) 384-well flat bottom plate (VWR Cat#29444-088), JAK2 KD (kinase domain) or JAK2 JH1JH2 V617F kinase (see below), Kinase-Glo™ (Promega Cat#V6712).
Stock Solutions: 5 mM JAK3tide peptide (9.86 mg/ml in 100 mM HEPES, pH 7.6), stored at −20° C.; 100 mM HEPES buffer, pH 7.6, 10% Brij 35; 10 mM ATP (5.51 mg/ml in 100 mM HEPES, pH 7.6) stored at −20° C. (diluted 50 μl into total of 10 ml 100 mM HEPES, pH 7.6, daily=50 μM ATP working stock); 100 mM MgCl2; 200 μM Staurosporine, 2× Kinase-Glo™ reagent (made fresh or stored at −20° C.).
Standard Assay Conditions for 384-well format (20 μl kinase reaction, 40 μl detection reaction): 10 mM MgCl2; 0.1 mM JAK3tide peptide (or, 0.5 mM JAK3tide peptide for JAK2 JH1JH2 V617F assay); 1 μl test compound (in 100% DMSO); 0.4 μg/ml JAK2 KD kinase or 12 μg/ml JAK2 JH1JH2 V617F kinase; 10 μM ATP; 100 mM HEPES+0.01% Brij, pH 7.6. Positive controls contained 5% DMSO with no test compound. Negative controls contained 10 μM staurosporine. The kinase reactions were initiated at time t=0 by the addition of ATP. Kinase reactions were incubated at 21-23° C. for 30 min, after which 20 μl of Kinase-Glo™ reagent were added to each well to quench the kinase reaction and initiate the luminescence reaction. After a 20 min incubation at 21-23° C., the luminescence was detected in a plate-reading luminometer (Tecan Ultra Evolution).
The pellet of Sf9 insect cells produced from a 6 L expression of Jak2 was resuspended in a buffer containing 50 mM Tris-HCl pH 8.5, 250 mM NaCl, 5% Glycerol, 0.2% β-octylglucoside, 5 mM β-mercaptoethanol (or with ligand added to the buffer eg. 5 mM ATP and 10 mM MgCl2; 0.05 mM compound of the invention) in a volume of approximately 40 mL per 1 L of original culture. One tablet of Roche Complete, EDTA-free protease inhibitor cocktail (Cat. #1873580) was added per 1 L of original culture. The suspension was then stirred for 1 hour at 4° C. Debris was removed by centrifugation for 30 minutes at 39,800 g at 4° C. The supernatant was decanted into a 500 mL beaker and 10 mL of 50% Qiagen Ni-NTA Agarose (Cat. #30250) pre-equilibrated in 50 mM Tris-HCl pH 8.5, 250 mM NaCl, 5% Glycerol, 0.2% β-octylglucoside, 5 mM β-mercaptoethanol was added and stirred for 30 minutes at 4° C. The sample was poured through a drip column at 4° C. and washed with 10 column volumes (CV) of 50 mM Tris-HCl pH 8.5, 250 mM NaCl, 5% Glycerol, 0.2% β-octylglucoside, 5 mM β-mercaptoethanol. The protein was eluted in 5 mL fractions using 5 CV of the same buffer containing 250-500 mM Imidazole. Fractions were pooled by SDS-PAGE analysis and the protein concentration determined by a Bradford assay. 5 mM TCEP was added to the pool and the protein sample was concentrated to ˜8 mL by centrifugation in an Amicon Ultra-15 10,000 Da MWCO centrifugal filter unit (Cat. #UFC901024). The concentrated protein was applied to a GE Healthcare HiLoad 16/60 Superdex 75 or 200 prep grade column (Cat. #17-1068-01, Cat. #17-1069-01) equilibrated in 20 mM Tris-HCl pH 8.5, 250 mM NaCl, and 1 mM DTT. Fractions were run on a SDS-PAGE gel and the cleanest fractions were pooled. The protein was concentrated to approximately 6.5-10 mg/mL. Samples in the final buffer (20 mM Tris-HCl pH 8.5, 250 mM NaCl, 1 mM DTT; [or with ligand added eg. 2 mM ATP/5 mM MgCl2 or 0.05 mM compound of the invention]) are delivered fresh to crystallization and stored at 4° C. or flash frozen in liquid nitrogen (as 120 μL aliquots) and stored at −80° C.

T1 sequence (O60674 849-1124 limits assumed): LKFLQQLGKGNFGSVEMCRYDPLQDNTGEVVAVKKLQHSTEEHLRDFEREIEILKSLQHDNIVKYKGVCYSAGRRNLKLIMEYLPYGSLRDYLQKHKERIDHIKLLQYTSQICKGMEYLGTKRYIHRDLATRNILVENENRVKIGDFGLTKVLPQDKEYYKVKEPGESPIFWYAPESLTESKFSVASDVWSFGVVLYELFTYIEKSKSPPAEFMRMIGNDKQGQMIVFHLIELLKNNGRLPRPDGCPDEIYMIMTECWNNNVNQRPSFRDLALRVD

Row | SMILES | IC50 [nM]
1 | OC1CCN(Cc2cccc(Nc3nccc(-c4ccc(CNc5ccccc5Cl)s4)n3)c2)CC1 | < 100
2 | CCN(CCC#N)C(=O)c1ccc(-c2ccnc(Nc3cccc(C(C)O)c3)n2)s1 (stereo not shown) | < 100
3 | C[C@@H](NC(=O)c1ccc(-c2ccnc(Nc3cccc(CN4CCN(CCO)CC4)c3)n2)s1)c1ccccc1 | < 100
4 | CC(O)c1cccc(Nc2nccc(-c3ccc(S(=O)(=O)Cc4ccccc4)s3)n2)c1 (stereo not shown) | < 100
5 | C[C@@H](NC(=O)c1ccc(-c2ccnc(Nc3cccc(CN4CCC(O)CC4)c3)n2)s1)c1ccccc1 | < 100
6 | CN(C)C1CCN(c2cccc(Nc3nccc(-c4ccc(C(=O)NCc5ccco5)s4)n3)c2)C1 (stereo not shown) | < 100
7 | CC(O)c1cccc(Nc2nccc(-c3ccc(-c4cccnc4)s3)n2)c1 (stereo not shown) | < 100
8 | CC(O)c1cccc(Nc2nccc(-c3ccc(-c4ccncc4)s3)n2)c1 (stereo not shown) | < 100
9 | O=C(NCc1ccccc1)c1ccc(-c2ccnc(Nc3ccc(CCO)cc3)n2)s1 | < 100
10 | CNC(=O)c1ccc(-c2ccc(-c3ccnc(Nc4cccc(C(C)O)c4)n3)s2)cc1 (stereo not shown) | < 100
11 | CCN(CCC#N)S(=O)(=O)c1ccc(-c2ccnc(Nc3cccc(C)c3)n2)s1 | < 100
12 | CCC(=O)Nc1ccc(-c2ccnc(Nc3cccc(C)c3)n2)s1 | < 100
13 | CC(O)c1cccc(Nc2nccc(-c3ccc(S(=O)(=O)N(C)C)s3)n2)c1 (stereo not shown) | < 100
14 | CN(Cc1ccccc1)C(=O)c1ccc(-c2ccnc(Nc3ccc(CCO)cc3)n2)s1 | < 100
15 | CCN(CCC#N)S(=O)(=O)c1ccc(-c2ccnc(Nc3cccc(C(C)O)c3)n2)s1 (stereo not shown) | < 100
16 | CC(O)c1cccc(Nc2nccc(-c3ccc(-c4cccc(CC#N)c4)s3)n2)c1 (stereo not shown) | < 100
